Test results taken from patent US20080119412A1, “Polypeptides for Modulating Binding of Trp Channel Proteins and Trp- Associated Proteins” (NoNO Inc., priority 2003, published 2008).
Residues, ends and D or L forms follow the SMILES beside them. No end group written: not given here. *: point of attachment. Biotin = O=C1N[C@H]2[C@H](CS[C@H]2CCCCC(=O)*)N1

Experiments:
neurons [1] = assay: Neuronal survival 20 h after NMDA challenge (FIG. 14); assay type: cell-based; settings: 20 h after 1 h NMDA challenge; peptide applied immediately after the NMDA challenge
Protocol: The sequence of Tat-9cTRPM7 is: [[…] or [[…]-[…]], whereby the first 11 residues correspond to the cell membrane transduction domain of the human immunodeficiency virus type 1 (HIV-1) Tat protein and the last 9 residues correspond to the last 9 amino acids of the C-terminus of human TRPM7 (accession Q96QT4). […] (A) Neuronal survival at 20 h in the indicated concentrations of Tat-9cTRPM7 in the absence of excitotoxic challenge. (B) Neuronal survival 20 h after challenging the cultures for 1 h with the indicated concentration of NMDA. Tat-9cTRPM7 was applied immediately after the NMDA challenge.
The sequence of Tat-9cTRPM7 is: [[…]-[…]; SEQ ID NO:258], whereby the first 11 residues correspond to the cell-membrane transduction domain of the human immunodeficiency virus type 1 (HIV-1) Tat protein and the last 9 residues correspond to the last 9 amino acids of the C-terminus of human TRPM7 (accession Q96QT4). (A) Neuronal survival at 20 h in the indicated concentrations of Tat-9cTRPM7 in the absence of excitotoxic challenge. (B) Neuronal survival 20 h after challenging the cultures for 1 h with the indicated concentration of NMDA. Tat-9cTRPM7 was applied immediately after the NMDA challenge.

TRPM7 = TRPM7 (Homo sapiens, UniProt Q96QT4); settings: intracellular free; cited from earlier work
Chain of TRPM7 (Q96QT4 whole entry, the tested form may be a part): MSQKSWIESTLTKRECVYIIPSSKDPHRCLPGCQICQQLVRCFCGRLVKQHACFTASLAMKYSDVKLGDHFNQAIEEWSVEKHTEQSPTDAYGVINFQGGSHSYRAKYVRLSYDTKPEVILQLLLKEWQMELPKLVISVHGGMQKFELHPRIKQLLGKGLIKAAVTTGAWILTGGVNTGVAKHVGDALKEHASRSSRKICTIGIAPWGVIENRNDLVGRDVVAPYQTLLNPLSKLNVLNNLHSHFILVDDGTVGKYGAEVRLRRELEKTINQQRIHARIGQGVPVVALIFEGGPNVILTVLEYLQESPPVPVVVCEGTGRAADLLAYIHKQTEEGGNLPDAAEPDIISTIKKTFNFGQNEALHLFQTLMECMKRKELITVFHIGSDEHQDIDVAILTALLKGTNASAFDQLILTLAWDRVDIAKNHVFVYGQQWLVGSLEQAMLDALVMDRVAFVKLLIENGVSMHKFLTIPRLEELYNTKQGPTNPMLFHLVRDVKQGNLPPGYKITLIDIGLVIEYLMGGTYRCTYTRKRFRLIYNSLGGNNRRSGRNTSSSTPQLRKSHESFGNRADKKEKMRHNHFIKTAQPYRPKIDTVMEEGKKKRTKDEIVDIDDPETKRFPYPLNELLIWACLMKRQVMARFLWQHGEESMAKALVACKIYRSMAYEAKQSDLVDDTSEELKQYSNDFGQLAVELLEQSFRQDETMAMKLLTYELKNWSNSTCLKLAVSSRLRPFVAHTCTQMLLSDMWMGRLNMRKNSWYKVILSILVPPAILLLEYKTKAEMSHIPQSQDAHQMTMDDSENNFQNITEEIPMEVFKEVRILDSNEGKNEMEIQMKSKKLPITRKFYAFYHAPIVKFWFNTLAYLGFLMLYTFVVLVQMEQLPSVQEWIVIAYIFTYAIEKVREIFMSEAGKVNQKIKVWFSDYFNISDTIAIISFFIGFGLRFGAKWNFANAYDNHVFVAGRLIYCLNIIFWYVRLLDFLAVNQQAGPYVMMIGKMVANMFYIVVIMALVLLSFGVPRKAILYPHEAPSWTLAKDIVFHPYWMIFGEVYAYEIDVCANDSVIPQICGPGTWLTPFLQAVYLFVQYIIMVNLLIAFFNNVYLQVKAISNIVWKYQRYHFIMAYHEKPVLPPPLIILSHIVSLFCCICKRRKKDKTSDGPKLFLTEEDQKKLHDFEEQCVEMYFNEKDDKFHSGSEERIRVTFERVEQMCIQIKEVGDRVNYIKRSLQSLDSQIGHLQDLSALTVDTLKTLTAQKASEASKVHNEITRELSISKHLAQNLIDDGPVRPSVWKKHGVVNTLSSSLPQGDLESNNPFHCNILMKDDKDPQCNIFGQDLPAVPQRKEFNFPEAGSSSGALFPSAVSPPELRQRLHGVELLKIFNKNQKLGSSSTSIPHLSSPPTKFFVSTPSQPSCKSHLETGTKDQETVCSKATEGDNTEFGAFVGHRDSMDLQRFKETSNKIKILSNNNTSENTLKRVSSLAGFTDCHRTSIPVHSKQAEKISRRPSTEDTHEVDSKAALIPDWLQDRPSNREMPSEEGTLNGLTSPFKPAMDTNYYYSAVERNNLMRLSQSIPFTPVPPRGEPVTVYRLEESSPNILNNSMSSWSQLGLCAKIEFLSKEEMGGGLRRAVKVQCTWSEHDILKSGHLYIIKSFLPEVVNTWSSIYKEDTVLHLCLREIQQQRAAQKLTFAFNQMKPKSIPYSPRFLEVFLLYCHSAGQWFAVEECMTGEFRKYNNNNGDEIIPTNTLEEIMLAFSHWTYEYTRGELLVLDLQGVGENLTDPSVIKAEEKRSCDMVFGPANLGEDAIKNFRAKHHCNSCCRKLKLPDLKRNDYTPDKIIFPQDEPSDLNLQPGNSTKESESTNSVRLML

TIP1 d1 = target: T1, TIP1 d1 (Homo sapiens, UniProt O14907); assay: G3 assay titration, GST-PDZ fusion / biotinylated peptide; assay type: binding
T1 construct: made in house; host or cells: E. coli (DH5alpha, BL21 or JM109)
T1 sequence (O14907 14-116): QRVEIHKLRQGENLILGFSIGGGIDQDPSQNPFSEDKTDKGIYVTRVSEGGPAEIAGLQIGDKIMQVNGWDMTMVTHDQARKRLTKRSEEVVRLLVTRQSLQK
Protocol: The G3 assay is identical to the G0 assay with the following exceptions. The peptides are typically present at 0.1 μM rather than 20 μM. The peptides are also pre-incubated with the HRP-streptavidin prior to adding to the assay plate. In the G0 assay, free peptide is incubated with the PDZ proteins prior to the addition of the HRP-streptavidin. Thus, for the G0 assay one can lose signal if the bound peptide dissociates from the PDZ protein prior to the addition of the HRP-streptavidin. In the G3 modified assay the HRP-streptavidin/peptide complex is added to the plate in one step, thus increasing the likelihood that all the bound peptide will be bound to HRP-streptavidin. The G3 modified assay increases the chance of observing weak interactions.
This example describes assays to identify binding between TRPM7 and PDZ domains. GST-PDZ fusions are produced that each contain an entire PDZ domain (or multiple PDZ domains), the collection encompassing approximately 90% of all PDZ domains identified in the human genome. (See Table 5 and Section V (PDZ Proteins and PL Protein Interactions Disclosure). Biotinylated peptide corresponding to 11 residues of Tat coupled to the C-terminal 9 amino acids of TRPM7 ([…]; SEQ ID NO:258) is synthesized and purified by HPLC.
• Nunc MaxiSorp 96 well Immuno-plate, Nunc • PBS pH 7.4 (phosphate buffered saline, 8 g NaCl, 0.29 g KCl, 1.44 g Na2HPO4, 0.24 g KH2PO4, add H2O to 1 liter and pH 7.4; 0.2 μm filter) • Assay Buffer: 2% BSA in PBS (20 g of bovine serum albumin per liter PBS, fraction V, ICN Biomedicals, cat#IC15142983 • Goat anti-GST polyclonal Ab, stock 5 mg/ml, stored at 4° C., Amersham Pharmacia cat#27-4577-01 • Dilute 1:1000 in PBS, final concentration 5 μg/ml. • HRP-Streptavidin, 2.5 mg/2 ml stock stored at 4° C., Zymed cat#43-4323, dilute 1:2000 into Assay buffer, final concentration of […] • Wash Buffer, PBS • Biotinylated peptides (HPLC purified, stock solution stored in −20° C. freezer) • GST-PRISM proteins (stock stored at −80° C., after 1st thaw store in −10° C. freezer) • TMB (3,3′,5,5′, teramethylbensidine), tablets, Sigma cat.#T5525 • Per plate, dissolve 1 tablet in 1 ml DMSO, add 9 ml Citrate/Phosphate buffer pH 5.4 and 2 μL H2O2 • 0.1 M H2SO4, Sigma cat.#S1526 • 12-w multichannel pipettor & tips • 50 ml reagent reservoirs, Costar#4870 • 50, 15 ml polypropylene conical tubes • Costar Transtar 96 Costar #7605 • Transtar 96 Cartridge Costar #7610 • Molecular Devices microplate reader (450 & 650 nm filters) with SoftMax Pro software *When using reagents stored at or 4° C. or −20° C., remove & keep on ice
• 1. Coat plate with 100 μl of 5 μg/ml anti-GST, overnight at 4° C. • 2. Dump contents of plate & out tap dry on paper towels • 3. Block with 200 μl Assay Buffer for 2 hrs at room temperature • 4. Prepare proteins at 5 μg/ml in Assay Buffer • 5. Wash 3× with cold PBS (4° C.), avoiding letting the plates dry out • 6. Add proteins at 50 μl per well, incubate 1 to 2 hrs at 4° C. • 7. Prepare peptides to desired concentration in Assay Buffer • 8. Wash 3× with cold PBS (4° C.), avoiding letting the plates dry out • 9. Add HRP-Streptavidin/peptide complex [prepared by incubating for 20 minutes at room temperature HRP-Streptavidin (1:2000) with the desired biotin-peptide concentration for 20 minutes at room temperature] at 50 μl per well on ice • 10. Place at room temperature for exactly 30 minutes • 11. Promptly wash 5× with PBS at room temperature • 12. Add 100 μl/well TMB substrate (write time on plate) • 13. Incubate in dark at room temperature for a maximum of 30 minutes • 14. Read plate at 25 minutes (650 nm), optional • 15. Stop reaction with 100 μl of 0.18 M H2SO4, 30 minutes after adding TMB • Take last reading at 450 nm soon after stopping reaction
The G3 assay was performed on a subset of the PDZ domains as in Example II except that the concentration of peptide was 0.002 μM, […], 0.1 μM, 0.2 μM, 1 μM, and 2 μM. Data was fitted to the equation: […]

neurons [2] = assay: Oxygen-glucose deprivation (OGD) of neurons: ROS production, calcium uptake, cell death; assay type: cell-based; settings: prolonged OGD, FIG. 7
Protocol: The fraction of dead cells was determining by dividing the number of neurons expressing GFP which became stained with propidium iodide 20 h after OGD by the number of neurons expressing GFP at the beginning of the experiment. Data for each culture was obtained from counting cells in 3 high power microscope fields per experiment.

YGRKKRRQRRRSTNSVRLML [Tat-9cTRPM7]
Neuronal survival (neurons [1]): enhanced survival

[Mg+2] [Mg^2+]
concentration inhibiting TRPM7 (TRPM7): 0.6 mM

CC(C)[C@H](NC(=O)[C@H](CCC(=O)O)NC(=O)[C@@H](NC(=O)[C@H](CCC(=O)O)NC(=O)[C@H](CCCNC(=N)N)NC(=O)[C@H](Cc1ccccc1)NC(=O)[C@H](Cc1c[nH]cn1)NC(=O)[C@H](CCCCN)NC(=O)[C@H](CCC(=O)O)NC(=O)[C@H](CCCNC(=N)N)NC(=O)[C@H](CCCNC(=N)N)NC(=O)[C@H](CCCNC(=N)N)NC(=O)[C@H](CCC(N)=O)NC(=O)[C@H](CCCNC(=N)N)NC(=O)[C@H](CCCNC(=N)N)NC(=O)[C@H](CCCCN)NC(=O)[C@H](CCCCN)NC(=O)[C@H](CCCNC(=N)N)NC(=O)CNC(=O)[C@H](Cc1ccc(O)cc1)NC(=O)CCCC[C@@H]1SC[C@@H]2NC(=O)N[C@@H]21)[C@@H](C)O)C(=O)O [AA353] (Biotin-YGRKKRRQRRREKHFRETEV-OH)
EC50 (TIP1 d1): < 2 nM

[Gd+3] [Gd^3+]
survival of neurons (neurons [2]): permit survival of neurons destined to die from prolonged OGD
